Patent EP0880540B1, “17-BETA-CYCLOPROPYL(AMINO/OXY) 4-AZA STEROIDS AS ACTIVE INHIBITORS OF TESTOSTERONE 5-ALPHA-REDUCTASE AND C17-20-LYASE” (Aventis Pharmaceuticals Inc., priority 1996, dated 1997)

Molecular target: T1, Rat testicular C17,20 lyase (Rattus norvegicus, UniProt P11715)
T1 construct: testes were excised, capsules were removed, and the tissue was weighed; from tissue; host or cells: testes of male Copenhagen rats (Harlan Laboratories), 10,000 x G supernatant of homogenate
T1 sequence (P11715 1-507): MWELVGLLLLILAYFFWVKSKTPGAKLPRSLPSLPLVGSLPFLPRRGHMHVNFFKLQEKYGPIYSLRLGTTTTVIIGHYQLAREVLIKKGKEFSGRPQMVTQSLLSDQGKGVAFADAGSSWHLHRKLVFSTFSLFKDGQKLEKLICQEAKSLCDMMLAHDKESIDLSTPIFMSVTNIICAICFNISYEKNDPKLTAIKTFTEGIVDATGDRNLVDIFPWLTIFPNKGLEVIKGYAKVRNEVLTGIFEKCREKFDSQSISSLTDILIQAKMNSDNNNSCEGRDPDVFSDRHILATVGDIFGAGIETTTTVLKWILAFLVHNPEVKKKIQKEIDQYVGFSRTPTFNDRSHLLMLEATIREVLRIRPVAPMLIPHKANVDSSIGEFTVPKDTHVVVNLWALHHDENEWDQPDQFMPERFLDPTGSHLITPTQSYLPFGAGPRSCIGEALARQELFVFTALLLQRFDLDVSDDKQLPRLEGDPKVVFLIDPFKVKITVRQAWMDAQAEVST
Assay: Ex vivo inhibition of C17,20 lyase in rat testes after dosing
Parameters: species or system Male Copenhagen rats
Protocol: Ex vivo inhibition of C17,20 lyase: MDL 103,432 was tested for ex vivo inhibition of rat and nude mouse testes lyase. Male Copenhagen rats and male athymic nude mice obtained from Harlan Laboratories, Indianapolis, IN, were divided into groups of 5 to 6 based on weight. Average weight was 100-140 g each for rats and 18-35 g each for the mice. Prior to oral dosing, animals were fasted overnight. Test compound was prepared by micronization in a lecithin vehicle using a glass Teflon® pestle-type homogenizer. The compound was brought to volume using lecithin so as to administer 0.5 mL per 100 g animal. Rats and nude mice were given vehicle only (controls) or vehicle plus test compounds peros. Rats were also given the compound in lecithin or lecithin alone subcutaneously. Each group consisted of 5-6 animals. At a specified time after dosing, the animals were anesthetized with CO2 gas, sacrificed by cervical dislocation, testes were excised, capsules were removed, and the tissue was weighed. Two volumes (w/v) of 0.05 M potassium phosphate buffer, pH 7.2, was added to the rat testes tissue on ice, and 11 volumes (w/v) of the same buffer were added to the mouse testes. Tissue was then homogenized using 20 strokes with a Dounce homogenizer equipped with a tight pestle. Homogenized tissue was centrifuged at 800 x G then at 10,000 x G for 15 minutes each. Supernatant was decanted, reserved, and kept chilled on ice. Assays for lyase activity contained the same buffer and NADPH regenerating system described above and also contained […] of 10,000 x G supernatant which was diluted 3-fold resulting in a 5-fold dilution overall in the final assay volume. Substrate, 17α-hydroxyprogesterone plus 1,3-[^3H]-17α-hydroxyprogesterone (40-57 mCi/mmole; 0.18 µCi per assay) to yield a final concentration of 0.1 µM, (=Km) was added to the remaining assay components after a 5 minute equilibration a 20°C of the latter. The total assay volume was 200 µL. Activity was assayed for 20 seconds at 20°C. Assays were terminated, extracted and analyzed as described above except that carrier steroids were 17α-hydroxyprogesterone, androst-4-ene-dione, and testosterone. The organic phase containing the steroids was evaporated using nitrogen gas, the residues dissolved in 18% tetrahydrofuran (v/v) in hexane, and the steroid substrate, 17α-hydroxyprogesterone, and products (AED, TEST) were separated by HPLC on a Si60 (5 µm) column (250 x 4 mm) using 20% (v/v) tetrahydrofuran (THF) in hexane for 20 minutes then ramping to 60% THF (v/v) for 11 minutes. Activity of test compound was expressed as percent inhibition relative to the control and was the mean of each group of treated animals.

CC12CCC3C(CC[C@H]4NC(=O)CCC34C)C1CC[C@@H]2OC1CC1 (stereo partly drawn) [MDL 103,432, 17β-Cyclopropyloxy-4-aza-5α-androstan-3-one]
inhibition at 50 mg/kg (po, 50 mg/kg p.o., 4 hr after dosing): 66.4%
inhibition at 50 mg/kg (po, 50 mg/kg p.o., 24 hr after dosing): 52.7%
inhibition at 50 mg/kg (sc, 50 mg/kg s.c., 4 hr after dosing): 32.9%
inhibition at 50 mg/kg (sc, 50 mg/kg s.c., 24 hr after dosing): 40.7%
